Data on 14 compounds can be found in article PMC5986738, “Thiazole Amides, A Novel Class of Algaecides against Freshwater Harmful Algae” (Scientific Reports, 2018).

In one series the test system is C. pyrenoidosa. The series is described as follows: Algicidal activity (growth inhibition, microplate, absorbance 650 nm) against C. pyrenoidosa. The series is classed as cell-based, Chlorella pyrenoidosa. The settings on record: for IC50: Auxenochlorella pyrenoidosa, read-out: IC50 value C. pyrenoidosa. How it is done: (§1) According to the method established by Schrader et al.[42], algicidal activity of alkaloid (1) and its amide analogues (7–32), as well as their hydrochloric salts (7S–27S), was evaluated against three typical […] algae, S. obliqnus, M. aeruginosa, and C. Pyrenoidosa at different concentrations. After three algae species were inoculated, the variation of algae density over 7 days were recorded continuously. […] The wavelength at 650 nm was determined as ideal incident wavelength for the measurement of algae density. Three […] algae S. obliqnus, M. aeruginosa, and C. pyrenoidosa were offered by Freshwater algae culture collection of the institute of Hydrobiology (FACHB-collection). Each culture for three species was maintained separately in continuous, steady-state growth microplates, which were placed in a growth chamber held at 28 ± 1 °C and illuminated continuously under fluorescent lights at a photon flux density of […]. Absorbance values of each wells were measured by a Packard model Spectra Count microplate photometer.
(§2) Alkaloid (1) and its analogues (7–32), as well as their hydrochloric salts (7S–27S), were dissolved separately in DMSO to provide stock solution concentrations. Initially, each stock solution was aseptically pipetted into the bottom of separate wells (20 μL per well) in a 96-well microplate and the final test concentrations for each sample were 0, 0.78, 1.56, 3.12, 6.25, 12.5, and 25 μg/mL. Wells of control samples contained only unialgal culture. The solution of CuSO4 and Diuron at the same concentration were chose as the reference sample. Each experiment was performed at least three times. Through measuring the area values under the individual growth curves, the inhibitory rate (%) for the individual tested concentration was calculated according to the following equation (1):1 Ii=(Ac−Ai)/[…]×100% • Ii: inhibitory rate of biomass growth by toxicant concentration i (%) • Ac: average area under the growth curve by control sample • Ai: average area under the growth curve by test concentration i
(§3) Mean values of 96-hour IC50 were determined for each group of plates, and standard deviation were calculated and reported as the mean ± SD.
(§4) The IC50 values of all compounds against three freshwater algae species were calculated using SPSS v19.0, and the algicidal activities of alkaloid (1) and its amide analogues (7–32), as well as the corresponding hydrochloric salts (7S–27S) are listed in Table 1 and 2, respectively.

For a further series, the system named is S. obliqnus. The series is described as follows: Algicidal activity (growth inhibition, microplate, absorbance 650 nm) against S. obliqnus. Format: cell-based. The settings on record: for IC50: 96 h, read-out: IC50 value S. obliqnus; for algicidal activity, times higher than CuSO4 and Diuron: S. obliqnus, from IC50 values. The procedure: as §1, §2, §3, §4

A further series relates to M. aeruginosa. The series is described as follows: Algicidal activity (growth inhibition, microplate, absorbance 650 nm) against M. aeruginosa. The settings on record: for IC50: Microcystis aeruginosa, read-out: IC50 value M. aeruginosa; for growth inhibitory ratio: 3.13 μg/mL. The series is classed as cell-based. How it is done: as §1, §2, §3, §4
Currently, M. aeruginosa appears to be the most harmful algae existing in the freshwater bodies in the developing countries. To investigate growth inhibitory potential of this class of thiazole amides on M. aeruginosa, thiazole amide (10) and its hydrochloric acid salt (10S) were subject to further survey for the optimal inhibition time and concentration (Figs 3 and 4). […] The variation of growth inhibitory ratios of compounds (10) and (10S) against M. aeruginosa at the lowest complete inhibition concentration is illustrated in Fig. 4. As observed, for administration of thiazole amide (10), the growth inhibitory ratios after 96 and 120 hours increase gradually to 79% and 92%, respectively. Under the same experimental conditions, growth inhibitory ratios for the salt (10S) are 82% and 88%, respectively.

A further series concerns Microcystis aeruginosa. Also on record: method as in PMID 16468755, PMID 16378379. The settings on record: cited from earlier work.
A further series concerns Kirchneriella contorta. The arrangement: method as in PMID 16468755, PMID 16378379. The settings on record: cited from earlier work.
Details of series [1]: method as in PMID 16468755, PMID 16378379. The settings on record: Synechococcus obliqnus; cited from earlier work.
The test system of series [2] is dinoflagellates and raphidophytes. The arrangement: method as in doi:10.1016/j.tetlet.2003.08.115, PMID 17988095. The settings on record: cited from earlier work.
The subject of another series is Brassica campestris. The series is described as follows: Herbicidal activity against terrestrial plant B. campestris. Format: in vivo. The settings on record: n.a.: no activity. How it is done: (§5) Toxicity of this class of thiazole amides towards non-target organisms, such as higher plants and fishes, was evaluated preliminarily using compound (10) as a representative sample. Herbicidal activity of compound (10) against two terrestrial plants, Brassica campestris and Echinochloa crusgalli, and two aquatic plants, Ceratophyllum demersum L and Hydrilla verticillata, was evaluated at a concentration of 500 mg/L using a previously reported method. In addition, toxicity of compound (10) toward fish Barchydanio rerio var was also tested at the concentrations of 200 mg/L and 100 mg/L, respectively.

The test system of the next series is Hydrilla verticillata. The series is described as follows: Herbicidal activity against aquatic plant H. verticillata. The settings on record: n.a.: no activity. The series is classed as in vivo. How it is done: as §5
In the next series the test system is Ceratophyllum demersum L. The series is described as follows: Herbicidal activity against aquatic plant C. demersum L. The settings on record: n.a.: no activity. The series is classed as in vivo. The procedure:
as §5

A further series relates to Echinochloa crusgalli. The series is described as follows: Herbicidal activity against terrestrial plant E. crusgalli. Format: in vivo. The settings on record: n.a.: no activity. The procedure:
as §5

The subject of another series is Barchydanio rerio var. The series is described as follows: Toxicity toward fish. Format: in vivo. The settings on record: for Survival ratio in 7 days: fish. How it is done: as §5

≈ marks a conversion by molar mass, not a printed value. Like-named read-outs stand apart in the source and are kept apart here. A value given as a limit tells only on which side of the number the result lay.

One may read the melting point as the temperature, or range, at which the solid turns liquid. One may read the IC50 as the concentration at which inhibition is half-maximal.

Compound `CC(=O)c1ccc(NC(=O)c2csc([C@H](C)N)n2)cc1` [compound 27] had a melting point of 139 to 141 °C. Besides, the IC50 in the series on C. pyrenoidosa (96-hour IC50, mean ± SD) is 2.84 ± 0.23 µg/mL (≈ 9.81 µM). The IC50 with S. obliqnus (96-hour IC50, mean ± SD) turned out to be 4.73 ± 0.54 µg/mL (≈ 16.3 µM). The IC50 with M. aeruginosa (96-hour IC50, mean ± SD) amounted to 2.33 ± 0.32 µg/mL (≈ 8.05 µM).
`COc1ccc(NC(=O)c2csc([C@H](C)N)n2)cc1` [compound 12] displayed a melting point of 126 to 127 °C. In the series with C. pyrenoidosa (96-hour IC50, mean ± SD), the IC50 is 17.4 ± 0.92 µg/mL (≈ 62.6 µM). Further, the “algicidal activity, times higher than CuSO4 and Diuron” value in the series with S. obliqnus is “more than 10 times”. Further, the IC50 with M. aeruginosa (96-hour IC50, mean ± SD) is 2.35 ± 0.91 µg/mL (≈ 8.47 µM).
In the case of `C[n+]1ccc2c(c1)[nH]c1ccc(Cl)cc12` [nostocarboline], the results for the concentration for half-maximal inhibition (IC50) (in the series with Microcystis aeruginosa; in the series with Kirchneriella contorta; in series [1]) were 2.1 µM, 29.1 µM and 5.8 µM, respectively.
On to `C[C@H](N)c1nc(C(=O)NCc2ccccc2)cs1` [compound 32], for which the melting point lay in the range of 64 to 67 °C. Besides, in the series with C. pyrenoidosa (96-hour IC50, mean ± SD), the IC50 was found to be 4.16 ± 0.88 µg/mL (≈ 15.9 µM). Moreover, the IC50 in the series with S. obliqnus (96-hour IC50, mean ± SD) turned out to be 100.2 ± 0.34 µg/mL (≈ 383 µM). Moreover, the IC50 in the series on M. aeruginosa (96-hour IC50, mean ± SD) stood at 9.48 ± 1.08 µg/mL (≈ 36.3 µM).
As to `CC(=O)c1nc(C(=O)NCCc2c[nH]c3ccccc23)cs1` [bacillamide A], the “antibiotic activity (in words)” value in series [2] was “potent antibiotic activity”.
The compound `COc1ccccc1NC(=O)c1csc([C@H](C)N)n1` [compound 22] gave a melting point of 82 to 84 °C. Moreover, in the series on C. pyrenoidosa (96-hour IC50, mean ± SD), the IC50 is 2.19 ± 0.71 µg/mL (≈ 7.9 µM). Besides, the 50% inhibitory concentration (IC50) with S. obliqnus (96-hour IC50, mean ± SD) is < 1 µg/mL. Also, the concentration for half-maximal inhibition (IC50) in the series on M. aeruginosa (96-hour IC50, mean ± SD) stood at 3.12 ± 0.56 µg/mL (≈ 11.2 µM).
As to `C[C@H](N)c1nc(C(=O)Nc2ccc(Br)cc2)cs1` [compound 10], the “Herbicidal activity (500 mg/L) B. campestris” value with Brassica campestris is reported as “none-toxic”. In the series on Hydrilla verticillata, the “Herbicidal activity (500 mg/L) H. verticillata” value was “none-toxic”. Further, the “Herbicidal activity (500 mg/L) C. demersum L.” value in the series with Ceratophyllum demersum L is “none-toxic”. For the same compound, the IC50 in the series with C. pyrenoidosa (96-hour IC50, mean ± SD) came out at 1.52 ± 0.05 µg/mL (≈ 4.66 µM); with M. aeruginosa (96-hour IC50, mean ± SD), 1.51 ± 0.11 µg/mL (≈ 4.63 µM). Besides, in the series with Echinochloa crusgalli, the “Herbicidal activity (500 mg/L) E. crusalli” value is on record as “none-toxic”. Moreover, the “toxicity toward fish (in words)” value with Barchydanio rerio var (100 and 200 mg/L) is on record as “safe”. In addition, the “Survival ratio in 7 days” value with Barchydanio rerio var (dosage 100 mg/L) and in the series on Barchydanio rerio var (dosage 200 mg/L) was 100% in each case. Further, in the series with S. obliqnus, the “algicidal activity, times higher than CuSO4 and Diuron” value is on record as “more than 10 times”. Also, the figures for the growth inhibitory ratio in the series with M. aeruginosa (after 96 hours) and with M. aeruginosa (after 120 hours) were 79% and 92%, respectively.
Consider `C[C@H](N)c1nc(C(=O)Nc2cccc(Cl)c2)cs1` [compound 14], for which the melting point lay within 155 to 159 °C. In addition, the half-maximal inhibitory concentration (IC50) in the series on C. pyrenoidosa (96-hour IC50, mean ± SD) amounted to 4.37 ± 0.14 µg/mL (≈ 15.5 µM). In addition, in the series with S. obliqnus (96-hour IC50, mean ± SD), the IC50 is 1.52 ± 0.12 µg/mL (≈ 5.39 µM). For the same compound, the IC50 in the series with M. aeruginosa (96-hour IC50, mean ± SD) was 5.19 ± 0.19 µg/mL (≈ 18.4 µM).
Regarding `C[C@H](N)c1nc(C(=O)Nc2ccccc2)cs1` [compound 7], the melting point was 117 to 122 °C. For the same compound, the IC50 in the series on C. pyrenoidosa (96-hour IC50, mean ± SD) is 4.61 ± 0.45 µg/mL (≈ 18.6 µM). For the same compound, the IC50 with M. aeruginosa (96-hour IC50, mean ± SD) came out at 11.2 ± 1.12 µg/mL (≈ 45.1 µM).
As to `Cc1cccc(NC(=O)c2csc([C@H](C)N)n2)c1.Cl` [16S], the “IC50 value C. pyrenoidosa” value with C. pyrenoidosa (96-hour IC50, mean ± SD) worked out at 1.82 ± 0.14 µg/mL. Further, the “IC50 value S. obliqnus” value in the series with S. obliqnus (96-hour IC50, mean ± SD) is 4.07 ± 0.39 µg/mL. Also, in the series on M. aeruginosa (96-hour IC50, mean ± SD), the “IC50 value M. aeruginosa” value is 1.95 ± 028 µg/mL.
The corresponding values for `C[C@H](N)c1nc(C(=O)Nc2cccc(C(F)(F)F)c2)cs1.Cl` [17S] are 2.39 ± 0.24 µg/mL, 1.59 ± 0.23 µg/mL and 3.09 ± 0.42 µg/mL.
As for `CCCCNC(=O)c1csc([C@H](C)N)n1` [compound 30], the melting point was 109 to 111 °C. For the same compound, in the series on C. pyrenoidosa (96-hour IC50, mean ± SD), the IC50 was 4.65 ± 0.25 µg/mL (≈ 20.5 µM). Besides, the IC50 in the series on S. obliqnus (96-hour IC50, mean ± SD) turned out to be 5.23 ± 0.36 µg/mL (≈ 23 µM). Besides, the half-maximal inhibitory concentration (IC50) in the series on M. aeruginosa (96-hour IC50, mean ± SD) amounted to 5.47 ± 0.41 µg/mL (≈ 24.1 µM).
The corresponding values for `Cc1cccc(NC(=O)c2csc([C@H](C)N)n2)c1` [compound 16] are 135 to 137 °C, 7.18 ± 0.05 µg/mL (≈ 27.5 µM), 2.86 ± 0.14 µg/mL (≈ 10.9 µM) and 24.2 ± 3.12 µg/mL (≈ 92.4 µM).
Consider `CN(C)C(=O)Nc1ccc(Cl)c(Cl)c1` [Diuron, reference compound], for which the IC50 in the series on C. pyrenoidosa (96 h) was 1.42 ± 0.27 µg/mL (≈ 6.09 µM); in the series with S. obliqnus, 0.79 ± 0.08 µg/mL (≈ 3.39 µM); with M. aeruginosa (96 h), 1.35 ± 0.15 µg/mL (≈ 5.79 µM).
